In brackets after ≈: the same amount, converted by molar mass. Several values for one entry are separate records, joined by “and”; a condition that tells them apart may be missing. Equal entries are not always repeated.
Legend:
P. aeruginosa [1] = assay: Viable cell counts from the biofilms in silicone tubing; conditions: 100 mg/ml of EAA, end of two week incubation
P. aeruginosa [2] = assay: Viable cell counts in the liquid collected from the tubing before each treatment
C. sakazakii [3] = assay: Biofilm amounts, ATP assay, 24-well polystyrene plate; type: cell-based; conditions: Cronobacter sakazakii, 37° C.
rats = rats fed up to 300 mg/kg body weight of EAA every day for 28 days; cited from earlier work
S. aureus = assay: Biofilm in silicone tubing, EAA flush, ATP assay; type: cell-based, Staphylococcus aureus
Excerpt: An AV Fistula Needle 17 Ga.

Y. enterocolitica [4] = assay: Biofilm amounts, ATP assay, 24-well polystyrene plate; type: cell-based, Yersinia enterocolitica; conditions: for IC50: Yersinia enterocolitica, Y. enterocolitica
lactobacilli = assay: Ground beef at 10° C., counts on APT plates; type: cell-based; conditions: for Different from 0% (concentrations grouping differently from untreated control, Fisher's LSD and t-test): LPT, Lactobacilli
Procedure: (§1) Ground beef was obtained from the NDSU Meat Lab (ag.ndsu.edu/ansc/facilities/shepperd-arena). Precautionary steps that the slaughter facility undertakes to prevent microbial contamination of muscle meat include rinses of the hot carcass with hot water and 2.5% lactic acid (Birko Corp., Henderson, Colo.). Prior to cutting the meat, cattle halves are incubated for two weeks at a temperature between 0 and 2.2° C. For this Example, meat from two animals was ground within the NDSU Meat Lab and consecutively transferred on ice to the research lab where this Experiment was conducted. Approximately 4 pound of ground meat was obtained from two independent slaughter events (FIG. 6). These two original meat samples are referred to as biological replicates throughout this study. Each biological replicate was weighed into five aliquots of 200 g that were supplemented with 0 g, 0.1 g, 0.5 g, 1 g, or 5 g of liquid EAA (Alfa Aesar, Ward Hill Mass.). […]
(§2) Meat samples were removed from the freezer and incubated at 10° C. for five days; bacterial counts were determined on days 1, 3, and 5. […]
(§3) The content of each bag was transferred into a stomacher bag and Maximum Recovery Diluent (MRD) was added to a total of 50 ml. […] The total bacterial count of each homogenate was determined by plating serial dilutions on Plate Count Agar (PCA). Pseudomonads were determined with Pseudomonas Selective Agar (PSA), lactobacilli with All Purpose Tween agar (APT), B. thermospacta with Streptomycin sulphate, Thallous Acetate and Actidione agar (STAA), and Enterobacteriaceae with Violet Red Bile Glucose agar (VRBG). […]
(§4) Each experiment was performed in a total of 8 replicates (2 biological replicates×2 technical replicates×2 plate replicates). […] Data were analyzed for each EAA concentration and selective media and expressed as CFU/g of meat or log10 CFU/g of meat. […] Average and standard errors were calculated across the two biological and two technical replicates. […]

E. coli = conditions: cited from earlier work
C. sakazakii [5] = assay: Biofilm amounts, CV assay, 24-well polystyrene plate; type: cell-based; conditions: Cronobacter sakazakii, 37° C.
Excerpt: (§5) Data were expressed as OD600.

S. marcescens [6] = assay: as above; type: cell-based; conditions: Serratia marcescens, 30° C.
Excerpt: as §5

Y. enterocolitica [7] = assay: Planktonic growth (maximal velocity of OD600) in TSB; type: cell-based, Yersinia enterocolitica; conditions: for IC50: Yersinia enterocolitica, Y. enterocolitica
Procedure: The IC50 values were calculated using […] software (Hitachi Solutions, San Bruno, Calif.).

S. enterica [8] = type: cell-based, Salmonella enterica serovar Typhimurium
isolated bovine corneas = conditions: cited from earlier work
Y. enterocolitica [9] = assay: Biofilm amounts, CV assay, 24-well polystyrene plate; type: cell-based, Yersinia enterocolitica
Excerpt: as §5

S. enterica [10] = conditions: cited from earlier work
B. thermospacta = assay: Ground beef at 10° C., counts on STAA plates; type: cell-based, Brocothrix thermospacta; conditions: for Different from 0% (concentrations grouping differently from untreated control, Fisher's LSD and t-test): STAA, B. thermospacta
Procedure: as §1, §2, §3, §4

S. marcescens [11] = assay: Biofilm amounts, ATP assay, 24-well polystyrene plate; type: cell-based; conditions: Serratia marcescens, 30° C.
B. subtilis = conditions: cited from earlier work

CCOC(=O)CC(C)=O [EAA, ethyl acetoacetate]
reduction of cell counts within the biofilm (P. aeruginosa [1]): about 3 logs | difference in viable cells in the liquid, EAA vs media flush (P. aeruginosa [2]; before the 2nd treatment, 100 mg/ml of EAA as first treatment): < 2 log | increase in viable cells in the liquid, EAA vs media flush (P. aeruginosa [2]; before the 4th treatment, 3 treatments of 100 mg/ml of EAA): ~1 log | difference in cell numbers, EAA vs media control (P. aeruginosa [2]; before the third treatment, two treatments of 100 mg/ml of EAA): approximately 2 logs | IC50 (C. sakazakii [3]): 310 µg/mL (≈ 2.38 mM) | general health, hematology, serum, urine, renal function (rats): did not result in any general health defects or changes in hematology, serum, urine, or renal function | percent reduction of ATP (S. aureus; 100 mg/ml EAA): 75% and 76% | ATP assay of the biofilm at the end of the two week incubation (S. aureus; 100 mg/ml of EAA, repeated experiment): just about abolished the biofilm | biofilm reduction by the ATP assay, fold equivalent (Y. enterocolitica [4]; 25° C., 15 mg/ml of EAA): 200 fold | log ratio of biofilm reduction by the ATP assay (Y. enterocolitica [4]; 25° C., 15 mg/ml of EAA): 2.3 log | biofilm amounts quantified by the ATP assay (Y. enterocolitica [4]; 37° C., 10 mg/ml EAA): abolished | log reduction in biofilm amount, ATP assay (Y. enterocolitica [4]; 37° C., 10 mg/ml of EAA): 2.04 | reduction in biofilm amount, ATP assay, fold equivalent (Y. enterocolitica [4]; 37° C., 10 mg/ml of EAA): 110 fold | IC50 (Y. enterocolitica [4]; 25° C.): 2100 µg/mL (≈ 16.1 mM) | IC50 (Y. enterocolitica [4]; 37° C.): 4290 µg/mL (≈ 33 mM) | log reduction, lactobacilli (lactobacilli; 0.5% w/w EAA, 3 days at 10° C.): 1.8 | Different from 0% (concentrations grouping differently from untreated control, Fisher's LSD and t-test) (lactobacilli; 0.5% EAA): 0.5% | Different from 0% (concentrations grouping differently from untreated control, Fisher's LSD and t-test) (lactobacilli; 2.5% EAA): 2.5% | mutagenicity (E. coli): a mutagenic effect could be detected | IC50 (C. sakazakii [5]): 700 µg/mL (≈ 5.38 mM) | IC50 (S. marcescens [6]): 5600 µg/mL (≈ 43 mM) | log reduction of planktonic growth (Y. enterocolitica [7]; 25° C., 10 mg/ml EAA): 1.7 log | reduction of planktonic growth, fold equivalent (Y. enterocolitica [7]; 25° C., 10 mg/ml EAA): 50 fold | log reduction of planktonic growth (Y. enterocolitica [7]; 37° C., 5 mg/ml EAA): 1.78 | reduction of planktonic growth, fold equivalent (Y. enterocolitica [7]; 37° C., 5 mg/ml EAA): 61 fold | IC50 (Y. enterocolitica [7]; 25° C.): 3200 µg/mL (≈ 24.6 mM) | IC50 (Y. enterocolitica [7]; 37° C.): 2480 µg/mL (≈ 19.1 mM) | reduction in the bacterial counts of S. enterica (S. enterica [8]; 0.5% EAA, 10° C.): not observed | log reduction, Salmonella enterica serovar Typhimurium (S. enterica [8]; 0.5% w/w EAA, 3 days at 10° C.): 0.2 | eye irritation (isolated bovine corneas): moderate eye irritation that was fully reversible after seven days | biofilm amounts quantified by the CV assay (Y. enterocolitica [9]; 37° C., 10 mg/ml EAA): abolished | IC50 (Y. enterocolitica [9]; Yersinia enterocolitica, Y. enterocolitica, 25° C.): 1000 µg/mL (≈ 7.68 mM) | mutagenicity (S. enterica [10]): No mutagenicity was detected | log reduction, Brocothrix thermospecta (B. thermospacta; 0.5% w/w EAA, 3 days at 10° C.): 2.1 | Different from 0% (concentrations grouping differently from untreated control, Fisher's LSD and t-test) (B. thermospacta; 0.5% EAA): 0.5% | Different from 0% (concentrations grouping differently from untreated control, Fisher's LSD and t-test) (B. thermospacta; 2.5% EAA): 2.5% | IC50 (S. marcescens [11]): 5500 µg/mL (≈ 42.3 mM) | mutagenicity (B. subtilis): No mutagenicity was detected

— US11452292B2, “Biofilm inhibitor and method of inhibiting biofilm” (NDSU Research Foundation, priority 2017, dated 2022)
